From patent US10377729B2, “Bis-furan derivatives as transthyretin (TTR) stabilizers and amyloid inhibitors for the treatment of familial amyloid polyneuropathy (FAP)” (BSIM Therapeutics, S.A., priority 2015, dated 2019)
“And” between values parts separate entries of the source, which are not always exact repeats. Identical values can stand only once. “Also recorded” adds a separate entry of the source. Like-named read-outs stand apart in the source and are kept apart here.

Legend:
[1] = system: TTR in human plasma (versus albumin and thyroxine-binding globulin); assay: Ex vivo thyroxine ([125I]-T4) competition assay in human plasma (native PAGE); settings: FIG. 9 A; for displacement of T4 from TTR / binding affinity for TTR (increasing order, in words): heterozygotic TTR V30M carriers and normal subjects, B
Description: After electrophoresis, the gels are dried, subjected to phosphor imaging (Typhoon 8600; […], Amersham Biosciences), and analysed using the ImageQuant program version 5.1. The intensity of the protein bands is compared. Two or three bands of different intensity should be visualized in plasma samples.
The results are analyzed by calculation of the TTR/total (TTR+ALB+TBG) ratio for each sample.

[2] = system: HepG2 cells (human liver carcinoma cell line); assay: HepG2 cell viability assay (resazurin reduction); assay type: cell-based; settings: for ID50: HepG2, 72 hours of incubation; for toxicity for HepG2 cells (in words): 72 hours, even at high doses, FIG. 10
Description: In an embodiment, the toxicity profiling in HepG2 cell lines was evaluated. […] Further toxicology is required if AT09 compounds are to be progressed to subsequent stages of development, not only to discard potential liver damage (or toxicity to other organs/tissues) but also given the long-term nature of treatments required by patients suffering from TTR amyloidoses (such as FAP), associated co-morbidities, or other TTR-related pathologies.
In an embodiment, the HepG2 cell viability assay was conducted as follows:
Adherent human hepatoma cells HepG2 were cultured in DMEM (Dulbecco's Modified Eagle's Medium) with 10% fetal bovine serum (FBS), 100 U/mL penicillin, 100 μg/mL streptomycin, and 1 mM sodium pyruvate. The cells were grown in 75 cm^2 culture flasks at 37° C., in an atmosphere of 5% CO2, and subcultured twice a week using a trypsin-EDTA solution.
Upon 3-4 days of growth and reaching approximately 90-95% confluence, HepG2 cells were plated in 96-well microplates with cell density of 12×10^3 cells/well and in a volume of 100 μL per well.
In this assay, the compounds were dissolved in pure DMSO and subsequently diluted in DMEM (in 9 intermediate compound concentrations). After adhesion of HepG2 cells to the microplates, 100 μL of each solution of intermediate compound concentration was added to each well (in quadruplicate). Positive controls with 10 wells containing only cells were tested; solvent controls resulted from the analyses of the three highest DMSO concentrations tested and were carried out in triplicate.
After addition of the compounds to the cells, the microplates were incubated for approximately 72 hours at 37° C. in an atmosphere of 5% CO2 until the cell viability assay was performed.
The viability of HepG2 cells in the presence of test compounds was assessed by the resazurin reduction assay. A stock solution of 0.01% resazurin in PBS is diluted 1:10 in incomplete RPMI 1640 cell medium (without addition of antibiotics and FBS). After washing the cells with 200 μL PBS containing Ca^2+ and Mg^2+, 200 μL of 0.001% resazurin were added to the wells. Blanks with incomplete RPMI 1640 medium alone were done in triplicate. The microplates were incubated at 37° C. and 5% CO2 for approximately 2-4 hours.
To quantify the reduction of resazurin, microplate absorbance readings were taken at two wavelengths, 540 nm (reduced form) and 630 nm (oxidized form), in a microplate spectrophotometer (BioTek Instruments, Inc.). The percentage of viable cells at each compound concentration was determined using the equation % viable cells=[(ε630 nm×Abs540 nm)−(ε540 nm×Abs630 nm)]/[(ε630 nm×Ctrl540 nm)−(ε540 nm×Ctrl630 nm)]
where ε is the molar extinction coefficient, Abs is the absorbance and Ctrl is the absorbance of the positive control (cells without compound).

[3] = system: familial amyloid polyneuropathy (FAP) patients; settings: 18-month phase-III clinical trial; cited from earlier work
[4] = target: wild type TTR in human plasma (Homo sapiens (Human), UniProt P02766); assay: Ex vivo TTR stability to dissociation assay (IEF, 4 M urea), plasma of normal subjects; assay type: biochemical; settings: wild type TTR plasmas, 5 samples, IEF densitometry
Description: (§1) In an embodiment, the AT09-B00 compound was further tested ex vivo for its effect on the stability of human plasma TTR, using isoelectric focusing (IEF) under semi-denaturating conditions, i.e. in the presence of 4 M of urea—as described in this disclosure and in references. After plasma incubation with the test and reference compounds, TTR was isolated by PAGE and run on IEF. Bands corresponding to different TTR species were quantified and the tetramer to total protein ratio was determined. Under the experimental conditions used, TTR presented a typical pattern of two main bands, representing monomers (normal and oxidized forms), and several bands of lower isoelectric point (pI) indicating different forms of TTR tetramers.
(§2) In an embodiment, ex vivo TTR stability assays were conducted. Plasma TTR stability to dissociation is assessed by isoelectric focusing (IEF) in semi-denaturing conditions of human plasma samples as described in references. To perform the assay, 30 μL of human plasma are incubated with 5 μL of a 10 mM solution of test compounds and control compounds overnight at 4° C. followed by a 1 hour incubation at room temperature. The samples are then subjected to native PAGE and the gel band containing TTR is excised and applied to an IEF gel. […] The results are expressed as the average ratio of TTR tetramer for over total TTR over 5 repetitions±the standard deviation.

TTR V30M in human plasma = TTR V30M in human plasma (Homo sapiens (Human), UniProt P02766, V30M); assay: Ex vivo TTR stability to dissociation assay (IEF, 4 M urea), plasma of heterozygotic V30M carriers; assay type: biochemical; settings: plasmas of heterozygotic V30M carriers, 5 samples, IEF densitometry
Description: as §1, §2

[5] = target: recombinant human wild-type TTR (WT-TTR) (Homo sapiens (Human), UniProt P02766); settings: for IEI (inhibition efficiency index): IEI = (pIC50/MW) × 1000; for ILE (inhibition lipophilic efficiency): ILE = pIC50 − cLogP; for inhibition of amyloid fibril formation by TTR (in words): compounds at 2×, 1× and 0.5× of WT-TTR (3.6 μM), 72 hours, FIG. 5; for pIC50: negative logarithm of IC50 values; for IC50: read-out: IC50 ± S.D. (concentration inhibiting TTR amyloid fibril formation by 50%), WT-TTR 3.6 μM, pH 4.4, 72 hours at 37° C., mean of at least 3 determinations
Description: In an embodiment, the TTR aggregation assay was conducted. […] In this assay, a solution of the test compound is added to a solution of TTR, so that the final concentration is 3.6 μM in protein (TTR) and 7.2, 3.6 and 1.8 μM in the test compound. At such concentrations, compounds may exert their activity through binding to one or both TTR binding sites. The pH of the resulting solution is then lowered to 4.4 to promote amyloidogenesis. The process of amyloid fibril formation over time is assessed by turbidity measurements at three different wavelengths, using a spectrophotometer endowed with a microplate reader.
In an embodiment, the extent of fibril formation of each mixture was normalized by comparison to a sample with protein (TTR) in absence of test compounds, which, at the end of 72 hours, represents 100% of amyloid fibril formation. In each experiment, each compound concentration was tested in triplicate. For each compound concentration, the arithmetic mean of the triplicate experiments was calculated, as well as the arithmetic mean of the three measured wavelengths.
In an embodiment, the IC50 determination assay was conducted. […] Ten different compound concentrations were used for each IC50 determination, while the protein concentration was kept constant at 3.6 μM (FIG. 6).
In an embodiment, the compound preparation for amyloid fibril formation assay was conducted as follows: compounds were prepared as 10.8 mM stock solutions in pure DMSO. Several dilutions in DMSO of the stock solution were made to provide secondary stock solutions. The concentrations were chosen depending on the efficacy of the compound in inhibiting the formation of TTR amyloid fibrils.
In an embodiment, the amyloid fibril formation assay used in this disclosure was based on the one presented in reference [46] and adapted to run in a 96-well microplate. For this purpose, 1 μL of different compound secondary stock solutions was added to 50 μL of a 7.2 μM WT-TTR solution in 10 mM sodium phosphate buffer, 100 mM KCl and 1 mM EDTA, pH 7.2, previously dialyzed against the same buffer solution. After 30 minutes of incubation at room temperature, the pH of the mixture was lowered to 4.4 with 49 μL of 200 mM acetate buffer, 100 mM KCl and 1 mM EDTA, pH 4.3. […] The mixtures were incubated at 37° C. for 72 hours.
In an embodiment, the turbidity at 405 nm, 450 nm and 490 nm (or 550, 600 and 650 nm when the compound absorbs at the previous wavelengths) was measured over time using a microplate spectrophotometer (BioTek Instruments, Inc. Winooski, Vt., USA) to evaluate the extent of fibril formation. Immediately before the turbidity measurements, the mixtures were gently shaken for 1 minute for homogenization but to avoid damaging the formed amyloid aggregates and fibrils. The final turbidity for each compound concentration tested in triplicate was calculated as an average of the three wavelengths measured. In addition, control samples containing TTR with no inhibitor and 1% DMSO, as well as inhibitor in absence of TTR, were tested and analyzed.
In an embodiment, the extent of amyloid fibril formation was compared to WT-TTR with no inhibitor, assigned to be 100% amyloid fibril formation (or 0% amyloid inhibition) at the end of the experiment.
IC50 values were determined by monitoring the effect of increasing concentrations of the compounds under test on the inhibition values. Ten different compound concentrations were used for each IC50 assay, along with a fixed WT-TTR concentration (3.6 μM).

WT-TTR = WT-TTR (Homo sapiens (Human), UniProt P02766); assay: Isothermal titration calorimetry (ITC) with WT-TTR; settings: 25° C., pH 7.2, 2% DMSO, model with two ligand-binding sites
Description: In an embodiment, Isothermal titration calorimetry (ITC) experiments were conducted to determine the binding constants of bis-furan compounds to TTR. […] An initial injection of 4 μL of titrant was followed by 28 regular injections of 10 μL until saturation of the titrated solution was reached. The heat associated with each injection was measured throughout time and calculated by integration of the area under the deflection of the measured peak, after baseline correction (i.e. subtraction of blank). Further details about the ITC experiments are provided herein.
The corresponding dissociation constants were calculated according to the equation given herein.
In an embodiment, the isothermal titration calorimetry (ITC) experiments were performed on a Malvern high precision VP-ITC titration calorimetry system (Malvern Instruments, Worcestershire, UK; previously from MicroCal). Compound stock solutions were prepared in pure DMSO. Both compound and WT-TTR dilutions were prepared in 20 mM sodium phosphate buffer, 150 mM sodium chloride and 2% DMSO, at pH 7.2. All solutions were filtered and degassed prior to use.
In an embodiment, in all titrations, the initial injection of 4 μL of titrant to the calorimetric cell was followed by 28 injections at regular intervals of 10 μL each, until saturation of the titrated solution was reached. […] The extent of binding was determined by direct measurement of the heat exchanged with the environment: the heat associated with each injection is proportional to the complex concentration and can be calculated by integrating the area under the deflection of the measured calorimetric signal. Data were analyzed with the Origin 7.0 software package from Malvern. A baseline correction was applied to each experiment by subtraction of data from injections of ligand solution into a buffer blank correlating to the heat of dilution of the ligand solution. For the calculation of the association constant (Ka), data analysis was performed according to a model of binding to a macromolecule with two ligand-binding sites, by non-linear regression. The reported dissociation constant (Kd) is the reciprocal of Ka, according to the equation ΔG=−RTInKa=RTInKd, where ΔG is the Gibbs free energy of binding, R is the gas constant and T is the temperature.

AD/TTR+/− mice = settings: cited from earlier work

O=C(O)c1ccc2nc(-c3cc(Cl)cc(Cl)c3)oc2c1 [Tafamidis]
displacement of T4 from TTR / binding affinity for TTR (increasing order, in words) [1]: iododiflunisal<tafamidis<AT09-B00 | ID50 [2]: 76.1 μg/mL and 247 μM | ID50 ([2]; listed as tafamidis): more than 75 μg/mL | FAP patients with improvement of symptoms [3]: approximately 60%

Cc1c(C(=O)O)coc1/C=C/c1ccc(Cl)o1 [AT09-B00, (E)-5-(2-(5-chlorofuran-2-yl)vinyl)-4-methylfuran-3-carboxylic acid]
specificity for TTR versus TBG and albumin (in words) ([1]; band intensity): small difference in band intensity for TBG and albumin | displacement of T4 from TTR / binding affinity for TTR (increasing order, in words) [1]: iododiflunisal<tafamidis<AT09-B00; also recorded: at least comparable to the current drug | toxicity for HepG2 cells (in words) [2]: relatively low toxicity for HepG2 cells | tetramer to total protein ratio [4]: 0.961 | tetramer to total protein ratio (TTR V30M in human plasma): 0.481 | IEI (inhibition efficiency index) [5]: 22.6 | ILE (inhibition lipophilic efficiency) [5]: 2.77 | inhibition of amyloid fibril formation by TTR (in words) [5]: approaching the high levels of activity of 2OH—PCB80 | pIC50 [5]: 5.69 | IC50 [5]: 2020 nM | Kd (WT-TTR; read-out: Kd1): 3.5 nM | Kd (WT-TTR; read-out: Kd2): 357 nM

O=C(O)c1cc(-c2ccc(F)cc2F)cc(I)c1O [iododiflunisal, reference compound]
displacement of T4 from TTR / binding affinity for TTR (increasing order, in words) [1]: iododiflunisal<tafamidis<AT09-B00 | brain Abeta levels and deposition, cognitive function (AD/TTR+/− mice): decreased brain Aβ levels and deposition; also recorded: decreased brain Abeta levels and deposition | tetramer to total protein ratio [4]: 0.768 | tetramer to total protein ratio (TTR V30M in human plasma): 0.445

(E)-5-(2-(5-chlorofuran-2-yl)vinyl)-1-methylfuran-3-carboxylic acid [AT09-B06]
toxicity for HepG2 cells (in words) [2]: relatively low toxicity for HepG2 cells | IEI (inhibition efficiency index) [5]: 22.3 | ILE (inhibition lipophilic efficiency) [5]: 2.99 | inhibition of amyloid fibril formation by TTR (in words) [5]: stronger inhibition | pIC50 [5]: 5.60 | IC50 [5]: 2490 nM | Kd (WT-TTR; read-out: Kd1): 3.9 nM | Kd (WT-TTR; read-out: Kd2): 278 nM

CNC[C@H](O)[C@@H](O)[C@H](O)[C@H](O)CO.O=C(O)c1ccc2nc(-c3cc(Cl)cc(Cl)c3)oc2c1 [Tafamidis meglumine, N-methyl D-(2,3,4,5,6-pentahydroxy-hexyl)-ammonium; 2-(3,5-dichloro-phenyl)-benzoxazole-6-carboxylate]
FAP patients with improvement of symptoms [3]: approximately 60%

Cc1oc(CSCc2cc(C(=O)O)c(C)o2)cc1C(=O)O [AT09-A00, bis((3-carboxy-2-methyl-furan-5-yl)methyl)sulfane]
inhibition of amyloid fibril formation by TTR (in words) [5]: lower inhibitory activity than tafamidis and thyroxine | IC50 [5]: 7100 nM

Oc1c(Cl)cc(-c2cc(Cl)c(O)c(Cl)c2)cc1Cl [Compound 2OH-PCB80, reference compound]
ID50 [2]: 19.4 μg/mL and 60 μM | IEI (inhibition efficiency index) [5]: 18.0 | ILE (inhibition lipophilic efficiency) [5]: 0.37 | pIC50 [5]: 5.80 | IC50 [5]: 1590 nM
